Consider 20 molecules from ChEMBL document CHEMBL4145520, “Small-molecule Mcl-1 inhibitors: Emerging anti-tumor agents” (Eur J Med Chem, 2018).

Test [1] in a line: Induction of apoptosis in human MOLP8 cells assessed as caspase 3/7 activation after 2 hrs by caspase-Glo 3/7 assay. Format: functional, cell-based. As to conditions: MOLP-8, 2 h.
Test [2] is filed under the species Homo sapiens. Kind of test: Selectivity ratio of Ki for Bcl-2 (unknown origin) to Ki for MCL1 (unknown origin).
The test system of test [3] is NCI-H345. The test is described as follows: Induction of apoptosis in human NCI-H345 cells after 48 hrs by Annexin V-FITC staining based flow cytometry. Format: functional, cell-based. The note with it: NCI-H345, 48 h. Background: In flow cytometry, cells or beads pass a laser one at a time.
The target in test [4] is Apoptosis regulator Bcl-2 (Homo sapiens, UniProt P10415). The test is described as follows: Displacement of FAM labelled Bid-derived peptide from Bcl-2 (unknown origin) incubated for 1 min by fluorescence polarization assay. A general note: Polarisation of emitted light reports the rotation of a fluorescent probe.
In test [5] the test system is HL-60. The test is described as follows: Induction of apoptosis in human HL60 cells after 48 hrs by Annexin V-FITC staining based flow cytometry. As to conditions: HL-60, 48 h. Format: functional, cell-based.
Test [6] in a line: Selectivity ratio of IC50 for human HL60 cells to IC50 for human NCI-H345 cells. Format: functional.
Test [7] has as its target T1, Induced myeloid leukemia cell differentiation protein Mcl-1 (Homo sapiens, UniProt Q07820). The test is described as follows: Displacement of FAM labelled Bid-derived peptide from MCL1 (unknown origin) incubated for 1 min by fluorescence polarization assay.
In test [8] the target is T1, Induced myeloid leukemia cell differentiation protein Mcl-1. The test is described as follows: Inhibition of FAM labelled Bid-BH3 binding to N-terminal GST-tagged human recombinant MCL1 expressed in Escherichia coli […] after 60 mins by TR-FRET assay.
The target is the same in test [9]. Kind of test: Inhibition of N-terminal 26 residues truncated 5-FAM labelled Bid-BH3 binding to MCL1 (unknown origin) by fluorescence polarization assay.
Test [10] deals with B-ALL. Kind of test: Cytotoxicity against human B-ALL cells assessed as reduction in cell viability after 24 hrs by CellTiter-Glo luminescent assay. Format: functional, cell-based. On the technique in general: ATP-based viability assays read luminescence as a measure of living cells.
Test [11] can be described thus: Inhibition of recombinant FITC tagged Bid-BH3 binding to BCL-XL deltaC (unknown origin) expressed in Escherichia coli BL21 (DE3) by fluorescence polarization assay. Details: species or system Homo sapiens.
Test [12] has as its system RS4-11. Kind of test: Cytotoxicity against human RS4:11 cells assessed as reduction in cell viability after 72 hrs. As to conditions: RS4-11, 72 h. Format: functional, cell-based.
Test [13] has as its target T2, Bcl-2-like protein 1 (Homo sapiens, UniProt Q07817). Kind of test: Inhibition of biotin labelled Bid-BH3 binding to C-terminal GST-tagged human BCL-XL […] expressed in Escherichia coli BL21 (DE3) preincubated for 1 hr followed by followed by biotin labelled Bid-BH3 addition measured after 2 hrs by ELISA.
For test [14], the system named is HeLa. Kind of test: Cytotoxicity against human HeLa cells assessed as reduction in cell viability after 72 hrs. Format: functional, cell-based.
In test [15] the target is T1, Induced myeloid leukemia cell differentiation protein Mcl-1. Kind of test: Binding affinity to MCL1 (unknown origin) by surface plasma resonance method.
The target is the same in test [16]. Kind of test: Inhibition of His6 tagged MBP fused Mcl-1 (unknown origin) after 0.5 hrs by fluorescence polarization assay.
Test [17] has the same target. The test is described as follows: Inhibition of FITC-BAK binding to MCL1 (172 to 327 residues) (unknown origin) by fluorescence polarization assay.
For test [18], the system named is RS4-11. Kind of test: Cytotoxicity against human RS4:11 cells assessed as reduction in cell viability. Format: functional, cell-based.
Test [19] addresses T1, Induced myeloid leukemia cell differentiation protein Mcl-1. Kind of test: Inhibition of Mcl-1 (unknown origin) by TR-FRET assay.
The subject of test [20] is A-375. Kind of test: Growth inhibition of human A375 cells after 48 hrs by CellTiter-Blue assay. Format: functional. The note with it: A-375, 48 h.
Test [21] deals with T1, Induced myeloid leukemia cell differentiation protein Mcl-1. Kind of test: Inhibition of FITC-BAK binding to His6 tagged MBP fused recombinant human MCL1 (172 to 327 residues) expressed in Escherichia coli by fluorescence polarization competition assay.
The nature of test [22]: Antiproliferative activity against human NCI-H2110 cells after 48 hrs by CellTiter-Glo assay. Format: functional, cell-based. The note with it: NCI-H2110, 48 h.
Test [23] relates to NCI-H23. The test is described as follows: Antiproliferative activity against human NCI-H23 cells after 48 hrs by CellTiter-Glo assay. Format: functional, cell-based. As to conditions: NCI-H23, 48 h.
In test [24] the test system is MDA-MB-468. The test is described as follows: Cytotoxicity against human MDA-MB-468 cells assessed as reduction in cell viability by MTT assay. Format: functional, cell-based.
Test [25] concerns the target T2, Bcl-2-like protein 1. Kind of test: Inhibition of biotin labelled Bid-BH3 binding to GST-tagged BCL-XL (unknown origin) preincubated for 15 mins followed by biotin labelled Bid-BH3 addition measured after 2 hrs by ELISA.

The structures appear in SMILES notation.

The term EC50 denotes the concentration needed to bring the measured effect to its halfway point. Broadly, the IC50 is the concentration that inhibits the measured activity by half. A word on the Ki: it is the dissociation constant of the complex between target and ligand, obtained from inhibition or displacement. In general, Kd refers to the constant that tells how readily two partners part at equilibrium. The low end stands for higher affinity, the high end for lower affinity. A word on the GI50: it is the concentration at which growth is held to half of that of the control. Lower therefore signals more potent growth inhibition.

T1 sequence (Q07820 whole entry): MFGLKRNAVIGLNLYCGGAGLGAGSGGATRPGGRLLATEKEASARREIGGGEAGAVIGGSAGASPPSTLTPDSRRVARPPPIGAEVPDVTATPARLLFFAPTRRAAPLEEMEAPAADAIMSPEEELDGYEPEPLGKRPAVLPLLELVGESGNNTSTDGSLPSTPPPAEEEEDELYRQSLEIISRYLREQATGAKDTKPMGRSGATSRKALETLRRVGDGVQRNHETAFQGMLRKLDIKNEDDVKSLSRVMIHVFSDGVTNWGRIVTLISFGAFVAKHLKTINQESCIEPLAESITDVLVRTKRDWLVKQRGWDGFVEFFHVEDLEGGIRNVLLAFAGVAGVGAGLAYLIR
T2 sequence (Q07817 whole entry): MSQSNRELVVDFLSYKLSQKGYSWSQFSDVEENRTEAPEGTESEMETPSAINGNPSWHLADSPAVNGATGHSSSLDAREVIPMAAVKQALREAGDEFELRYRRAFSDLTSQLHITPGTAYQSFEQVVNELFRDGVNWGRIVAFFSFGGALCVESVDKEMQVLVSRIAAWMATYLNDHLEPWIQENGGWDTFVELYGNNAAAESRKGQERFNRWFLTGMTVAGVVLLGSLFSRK
Chain of Apoptosis regulator Bcl-2 (P10415 whole entry): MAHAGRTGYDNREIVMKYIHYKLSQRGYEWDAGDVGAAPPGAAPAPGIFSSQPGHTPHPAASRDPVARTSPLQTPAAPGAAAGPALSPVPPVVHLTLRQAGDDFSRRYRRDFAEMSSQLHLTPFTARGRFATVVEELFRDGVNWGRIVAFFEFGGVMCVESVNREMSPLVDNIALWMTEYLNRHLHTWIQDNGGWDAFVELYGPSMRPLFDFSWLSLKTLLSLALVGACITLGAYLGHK

For `Cc1c(-c2cccc3c(CCCOc4cccc5ccccc45)c(C(=O)O)[nH]c23)c(COc2ccc(B(O)O)c(C=O)c2)nn1C`, in [1], the EC50 stood at 460 nM.
On to `CC(=O)c1cc(OCc2nn(C)c(C)c2-c2cccc3c(CCCOc4cccc5ccccc45)c(C(=O)O)[nH]c23)ccc1B(O)O`, for which, in test [1], the EC50 came out at 170 nM.
Take `Cc1c(-c2cccc3c(CCCOc4cccc5ccccc45)c(C(=O)O)[nH]c23)c(COc2ccccc2)nn1C`: in test [1], the EC50 was over 11000 nM.
As for `O=C(O)c1cc2ccccc2n1S(=O)(=O)c1ccc(OCc2cccc(Cl)c2)cc1`, in test [2], the Ratio Ki came to 7.5. The IC50 in test [3] stood at 2200 nM; in test [5] it was 63300 nM. Besides, the Ki in test [4] was determined as 3600 nM; in [7] it was 480 nM. The “Ratio IC50” value in test [6] came out at 30.
`Cc1c(-c2cccc3c(CCCOc4cccc5ccccc45)c(C(=O)O)[nH]c23)c(COc2ccc(B(O)O)cc2)nn1C`: the EC50 in [1] is over 11000 nM. Moreover, in [8], the IC50 was 162 nM.
With `Cc1c(-c2cccc3c(CCCOc4cccc5ccccc45)c(C(=O)O)n(C)c23)c(COc2ccc(B(O)O)c(C=O)c2)nn1C`, the EC50 in test [1] turned out to be 75 nM.
As for `COc1cc(NC(=O)CCC(=O)N2CCN(Cc3cccc(-c4ccc(Cl)cc4)c3)CC2)cc(OC)c1OC`, in test [9], the affinity, expressed as Ki, was 320 nM.
As for `Cc1cs/c(=N\C2CCCCC2)n1/N=C/c1ccc(O)c(O)c1O`, the results for the IC50 in test [10] and in test [11] were 4200 nM and over 50000 nM, respectively.
Turning to `O=C(c1ccccc1O)c1[nH]c(Cl)c(Cl)c1-n1c(C(=O)c2ccccc2O)cc(Cl)c1Cl`, the IC50 was 2000 nM in [12], over 80000 nM in [13] and 20000 nM in test [14].
In test [15], `N#CC1=C(NCCC(=O)O)c2ccc(Sc3ccc(Br)cc3)c3cccc(c23)C1=O` yielded a Kd of 150 nM.
In test [9], `COc1cc(CC(=O)NCc2ccc(C(=O)N3CCN(Cc4ccccc4-c4ccccc4)CC3)cc2)cc(OC)c1OC` registered a Ki of 180 nM.
Turning to `Cc1cc(OCCCc2c3n(c4c(-c5c(C)nn(C)c5C)c(Cl)ccc24)CCCC(c2cc(C(=O)O)c4ccn(C)c4c2)C3=O)cc(C)c1Cl` (stereo not drawn), the Ki in [16] is under 1 nM.
For `Cc1cc(Oc2ccc(C(=O)O)c(OCc3ccccc3)n2)cc(C)c1Cl`, in test [17], the Ki was 2900 nM.
Turning to `CC1(C)CCC(CN2CCN(c3ccc(C(=O)NS(=O)(=O)c4ccc(NCC5CCOCC5)c([N+](=O)[O-])c4)c(Oc4cnc5[nH]ccc5c4)c3)CC2)=C(c2ccc(Cl)cc2)C1` [VENETOCLAX], in [18], the IC50 fell in the range of 1.5 to 5 nM. Besides, in test [19], the Ki was over 444 nM.
For the molecule `Cc1cc(Oc2ccc(S(=O)(=O)N3CC(C(=O)O)Cc4ccccc43)cc2)cc(C)c1Cl` (stereo not drawn), growth in test [20] was halved (GI50) at 50000 nM. For the same molecule, the Ki in test [21] came out at 120 nM.
Consider `O=C(O)c1[nH]c2ccccc2c1CCCCC1CCCCC1`, for which the EC50 in test [22] turned out to be 5300 nM; in [23] it was 7200 nM.
Turning to `Cc1c(-c2cccc3c(CCCOc4cccc5ccccc45)c(C(=O)O)[nH]c23)c(COc2cccc(C=O)c2)nn1C`, in [1], the EC50 was over 11000 nM.
Consider `O=C(O)CSc1ccc(C(=O)c2[nH]c(Cl)c(Cl)c2-n2c(C(=O)c3ccc(SCC(=O)O)cc3O)cc(Cl)c2Cl)c(O)c1`, for which the IC50 is 29000 nM in test [24] and over 100000 nM in [25].
Regarding `CCc1nn(C)c(CC)c1-c1cccc2c(CCCOc3cccc4ccccc34)c(C(=O)O)n(CCN3CCOCC3)c12`, the EC50 in test [1] turned out to be 350 nM.
Same read-out and setting: for `CC(=O)c1cccc(OCc2nn(C)c(C)c2-c2cccc3c(CCCOc4cccc5ccccc45)c(C(=O)O)[nH]c23)c1` the value was 2700 nM.
